According to patent US20190105367A1, “ANTIMICROBIAL 4-OXOQUINOLIZINES” (Emergent Product Development Gaithersburg Inc., priority 2011, published 2019):
In brackets after ≈: the same amount, converted by molar mass. Read-outs that look alike come from different tables or passages of the source. Marks after values point to notes of the source that are not given here.

How the values were obtained:
A. baumannii A473 = assay: MIC without and with sub-inhibitory polymyxin B (Example 4); format: cell-based, Acinetobacter baumannii; conditions: for MIC without PB/MIC + PB / MIC: 2nd experiment
E. cloacae 13047 = assay: MIC, standard panel of Gram-positive and Gram-negative strains (Example 2); format: cell-based, Enterobacter cloacae
E. faecalis 29212 = assay: as above; format: cell-based, Enterococcus faecalis; conditions: Enterococcus faecalis, 29212, read-out: MIC E. faecalis 29212
[1] = tested on: Acinetobacter sp. (H064200250); assay: Preliminary MBC without and with sub-inhibitory polymyxin B (Example 4); format: cell-based
Method: The plates were incubated for 18-20 hours at 37° C. The MBC was read as the lowest concentration at which colony growth was ca. 90% less than the positive control (i.e. usually where single colonies or no colonies were observed).

S. epidermis 12228 = assay: MIC, standard panel of Gram-positive and Gram-negative strains (Example 2); format: cell-based, Staphylococcus epidermis; conditions: Staphylococcus
S. aureus 25923 = assay: as above; format: cell-based; conditions: Staphylococcus aureus
S. pneumoniae 49619 = assay: MIC, panel of quinolone-resistant strains (Example 2); format: cell-based, Streptococcus pneumoniae; conditions: Streptococcus pneumoniae, 49619, read-out: MIC S. pneumoniae 49619
A. baumannii A387 [2] = assay: MIC without and with sub-inhibitory polymyxin B (Example 4); format: cell-based, Acinetobacter baumannii
A. baumanii 19606 = assay: MIC, standard panel of Gram-positive and Gram-negative strains (Example 2); format: cell-based; conditions: Acinetobacter baumannii
A. baumannii A387 [3] = assay: Preliminary MBC without and with sub-inhibitory polymyxin B (Example 4); format: cell-based, Acinetobacter baumannii
[4] = tested on: strains of A. baumannii and one strain of Acinetobacter sp.; assay: MIC without polymyxin B, panel of Acinetobacter strains (Example 4); format: cell-based; conditions: 1st experiment; resistant strains, ATCC 19606, A329, A390 and A473 not taken
[5] = A. baumannii A473, +0.06 μg/ml PB
[6] = Acinetobacter baumannii, A473, A. baumannii A473, +0.06 μg/ml PB, read-out: MIC
[7] = Acinetobacter, read-out: MBC +[…] PB, Acinetobacter spp. H064200250, +[…] polymyxin B, preliminary MBC, 1st experiment
[8] = A. baumannii A387, +0.06 μg/ml PB, 2nd experiment
[9] = A. baumannii A387, +0.06 μg/ml polymyxin B, 1st experiment
[10] = A. baumannii A387, ratio, PB 0.06 μg/ml, 1st experiment
[11] = Acinetobacter baumannii, A387, A. baumannii A387, +0.06 μg/ml PB, 2nd experiment, read-out: MIC
[12] = Acinetobacter baumannii, A387, read-out: MBC +0.06 μg/ml PB, A. baumannii A387, +0.06 μg/ml polymyxin B, 1st experiment
[13] = A. baumannii A387, without PB, 2nd experiment
[14] = A. baumannii A387, without polymyxin B, 1st experiment

Cc1c(-c2ccc(CN)cc2)ccn2c(=O)c(C(=O)O)cc(C3CC3)c12 [Compound 5, 8-(4-aminomethyl-phenyl)-1-cyclopropyl-9-methyl-4-oxo-quinolizine-3-carboxylic acid]
MIC without PB/MIC + PB (A. baumannii A473; [5]): 8
MIC (A. baumannii A473; [6]): 1 µg/mL (≈ 2.87 µM)
MIC (E. cloacae 13047; Enterobacter cloacae, 13047; read-out: MIC E. cloacae 13047): 0.06 µg/mL (≈ 0.172 µM)
MIC (E. faecalis 29212): 0.125 µg/mL (≈ 0.359 µM)
MBC ([1]; Acinetobacter): 4 µg/mL (≈ 11.5 µM)
MBC [1, 7]: 1 µg/mL (≈ 2.87 µM)
MIC (S. epidermis 12228): 0.06 µg/mL (≈ 0.172 µM)
MIC (S. aureus 25923): 0.03 µg/mL (≈ 0.0861 µM)
MIC (S. pneumoniae 49619): 0.125 µg/mL (≈ 0.359 µM)
MIC without PB/MIC + PB (A. baumannii A387 [2]; [8]): 4
MIC +0.06 μg/ml PB (A. baumannii A387 [2]; [9]): 0.25 µg/mL
MIC without PB/MIC + PB (A. baumannii A387 [2]; [10]): 8
MIC (A. baumannii A387 [2]; [11]): 1 µg/mL (≈ 2.87 µM)
MIC (A. baumanii 19606): 0.25 µg/mL (≈ 0.718 µM)
MBC (A. baumannii A387 [3]; [12]): 0.25 µg/mL

Cc1c(-c2ccc(CN)cc2)c(F)cn2c(=O)c(C(=O)O)cc(C3CC3)c12 [Compound 6, 8-(4-aminomethyl-phenyl)-1-cyclopropyl-7-fluoro-9-methyl-4-oxo-quinolizine-3-carboxylic acid]
MIC without PB/MIC + PB (A. baumannii A473; [5]): 4
MIC (A. baumannii A473; [6]): 2 µg/mL (≈ 5.46 µM)
MIC (E. cloacae 13047; Enterobacter cloacae, 13047, read-out: MIC E. cloacae 13047): 0.125 µg/mL (≈ 0.341 µM)
MIC (E. faecalis 29212): 0.125 µg/mL (≈ 0.341 µM)
MBC ([1]; Acinetobacter): 1 µg/mL (≈ 2.73 µM)
MBC [1, 7]: 4 µg/mL (≈ 10.9 µM)
MIC (S. epidermis 12228): 0.03 µg/mL (≈ 0.0819 µM)
MIC (S. aureus 25923): 0.03 µg/mL (≈ 0.0819 µM)
MIC (S. pneumoniae 49619): 0.125 µg/mL (≈ 0.341 µM)
MIC without PB/MIC + PB (A. baumannii A387 [2]; [8]): 4
MIC without PB/MIC + PB (A. baumannii A387 [2]; [10]): 8
MIC (A. baumannii A387 [2]; [11]): 1 µg/mL (≈ 2.73 µM)
MIC (A. baumannii A387 [2]; Acinetobacter baumannii, A387, read-out: MIC +0.06 μg/ml PB, A. baumannii A387, +0.06 μg/ml polymyxin B, 1st experiment): 0.5 µg/mL
MIC (A. baumanii 19606): 0.5 µg/mL (≈ 1.36 µM)
MBC (A. baumannii A387 [3]; Acinetobacter baumannii, A387, A. baumannii A387, +0.06 μg/ml PB, 2nd experiment, read-out: MBC): 1 µg/mL (≈ 2.73 µM)
MBC (A. baumannii A387 [3]; [12]): 0.5 µg/mL

Imipenem/cilastatin
MIC (A. baumannii A473; [5]): 4 µg/mL
MIC (A. baumannii A473; A. baumannii A473, without PB): 32 µg/mL
MIC without PB (A. baumannii A473; A. baumannii A473, without polymyxin B, 1st experiment): 32 µg/mL
MBC ([1]; Acinetobacter spp. H064200250 (OXA51), +[…] PB, preliminary MBC, 2nd experiment): 0.5 µg/mL
MBC ([1]; Acinetobacter spp. H064200250 (OXA51), without PB, preliminary MBC, 2nd experiment): 8 µg/mL
MBC +[…] PB ([1]; Acinetobacter spp. H064200250, +[…] polymyxin B, preliminary MBC, 1st experiment): 2 (0.5)* μg/ml
MBC without PB ([1]; Acinetobacter spp. H064200250, without polymyxin B, preliminary MBC, 1st experiment): 16 µg/mL
MIC range without PB Oct. 1, 2006 n = 8 [4]: 1 to 128 µg/mL
MIC (A. baumannii A387 [2]; [8]): 8 µg/mL
MIC +0.06 μg/ml PB (A. baumannii A387 [2]; [9]): 8 µg/mL
MIC (A. baumannii A387 [2]; [13]): 16 µg/mL
MIC without PB (A. baumannii A387 [2]; [14]): 16 µg/mL
MBC (A. baumannii A387 [3]; [8]): 8 µg/mL
MBC +0.06 μg/ml PB (A. baumannii A387 [3]; [9]): 8 µg/mL
MBC (A. baumannii A387 [3]; [13]): 16 µg/mL
MBC without PB (A. baumannii A387 [3]; [14]): 16 µg/mL
